Measurements published in US12152048B2, “Nitroxoline prodrug and use thereof” (Jiangsu Yahong Meditech Co., Ltd., priority 2018, dated 2024).
Values after ≈ are worked out from the molar mass of the structure shown.

How the values were obtained:
[1] = Determination of water solubility in phosphate buffer; assay type: physicochemical; details: for solubility at 24 h: thermodynamic from solid
From the text: Experimental instruments: 96-well filter plate (MSHVN4510 or MSHVN4550, Millipore); electronic digital display vortex mixer (MS3 Digital, IKA); multi-purpose vacuum pump (circulating water type, SHB-111, Zhengzhou Greatwall Scientific Industrial and Trade Co., Ltd.); balance (XSLT05, Mettler-Toledo); comfortable mixer (Eppendorf AG 22331 Hamburg, Eppendorf); liquid chromatography (LC-3AD, Shimadzu); mass spectrometry (API4000, Applied Biosystems, USA); sample injector (Anylytics AG System, CTC). Nitroxoline was prepared according to the method disclosed in Journal of Heterocyclic Chemistry, 1971, vol. 8, p 821 by Wisdom Pharmaceutical Co., Ltd.
Experimental process: 500 μL of phosphate buffer (pH=1.2, 4.5, 6.8 or 7.4) were added to a glass flask, to which 2 mg of compound powder were added. The flask was sealed with a cap and shaked on a mixer (VORTEX-GENIE2) at room temperature for 24 hours. The solution was subjected to vacuum filtration, and the filtrate was processed to determine the compound concentration by LC/MS/MS.

[2] = Stability in mouse liver microsome; assay type: in vitro ADME; details: 2 μM, 37° C., 30 minutes
[3] = Stability in human plasma
From the text: (§1) Experimental instruments: thermostatic shaker (SHA-B, Guohua Electric Appliance Co., Ltd.); centrifuge (5810R, Eppendorf); mass spectrometry (AP4000, Applied Biosystems, USA); liquid chromatography (LC-30AD, Shimadzu); sample injector (CTC Analytics AG System, CTC).
(§2) Test animals: plasma of human (batch number: BRH1343165), rat (batch number: RAT336728), mouse (batch number: MSE280000), dog (batch number: BGL99137) and monkey (batch number: PH-Monkey-20180821) are purchased from Shanghai Sixin Biological Technology Co., Ltd.
(§3) Experimental process: the compound of the present invention was dissolved in an organic solvent to obtain a 1 mM working solution. 3 μL of the working solution were added to 597 μL of pre-incubated human or rat plasma and mixed well. 50 μL of the solution were immediately taken out as the 0 minute sample. The remaining sample was incubated at 37° C., and 50 μL of sample were taken out at 15, 30, 60 and 120 minutes respectively. All the samples taken out were immediately processed to precipitate protein, and centrifuged to obtain a supermate for the determination of the compound concentration by LC/MS/MS.

[4] = Stability in dog liver microsome; details: 2 μM, 37° C., 30 minutes
[5] = Stability in rat liver microsome; details: 2 μM, 37° C., 30 minutes
Description: (§4) Experimental instruments: thermostatic shaker (SHA-B, Guohua Electric Appliance Co., Ltd.); centrifuge (5810R, Eppendorf); mass spectrometry (API4000, Applied Biosystems, USA); liquid chromatography (LC-30AD, Shimadzu); sample injector (CTC Analytics AG System, CTC).
(§5) Experimental process: 25 μg/mL alamethicin (Aldrich), 5 mM magnesium chloride and 0.5 mg/mL microsome (XENOTECH) were added to 100 mM phosphate buffer to obtain a coenzyme-free reaction solution. A portion of the coenzyme-free reaction solution was added with 1 mM reductive nicotinamide adenine dinucleotide phosphate (Aldrich) and 5 mM uridine diphosphate glucuronic acid (Aldrich) to obtain a coenzyme-containing reaction solution. The working solution of the compound of the present invention was added to the two reaction solutions so that the final concentration of the compound was 2 μM. Immediately after mixing well, 50 μL of the solution were taken out as the 0 minute sample, and 50 μL of the remaining sample were taken out after incubating at 37° C. for 30 minutes. All the samples taken out were immediately processed to precipitate protein, and centrifuged to obtain a supernate for the determination of the compound concentration by LC/MS/MS.

[6] = Stability in human liver microsome; details: 2 μM, 37° C., 30 minutes
Description: as §4, §5

[7] = Stability in plasma, overall conclusion (species not stated); details: conclusion in words
Stability in dog plasma = assay type: in vitro ADME
From the text: as §1, §2, §3

[8] = aqueous buffer, phosphate buffer pH 7.4, room temperature

From the text for Stability in rat plasma: as §1, §2, §3

| solubility at 24 h [1, 8] [µg/mL] | Percentage of the compound remaining in plasma (Stability in rat plasma; 0 minute) [%] | Percentage of the compound remaining in plasma (Stability in rat plasma; 37° C., 15 minutes) [%] | Percentage of the compound remaining in plasma (Stability in rat plasma; 37° C., 30 minutes) [%] | Percentage of the compound remaining in plasma (Stability in rat plasma; 37° C., 60 minutes) [%] | Percentage of the compound remaining in plasma (Stability in rat plasma; 37° C., 120 minutes) [%] | Percentage of the compound remaining in plasma ([3]; 0 minute) [%] | Percentage of the compound remaining in plasma ([3]; 37° C., 15 minutes) [%] | Percentage of the compound remaining in plasma ([3]; 37° C., 30 minutes) [%] | Percentage of the compound remaining in plasma ([3]; 37° C., 60 minutes) [%] | Percentage of the compound remaining in plasma ([3]; 37° C., 120 minutes) [%] | stability in plasma [7] | Percentage of the compound remaining in plasma (Stability in dog plasma; 0 minute) [%] | Percentage of the compound remaining in plasma (Stability in dog plasma; 37° C., 15 minutes) [%] | Compound | Percentage of the compound remaining in dog liver microsome ([4]; with coenzyme) [%] | Percentage of the compound remaining in dog liver microsome ([4]; without coenzyme) [%] | Percentage of the compound remaining in rat liver microsome ([5]; with coenzyme) [%] | Percentage of the compound remaining in rat liver microsome ([5]; without coenzyme) [%] | Percentage of the compound remaining in human liver microsome ([6]; with coenzyme) [%] | Percentage of the compound remaining in human liver microsome ([6]; without coenzyme) [%] | further results |
| --- | --- | --- | --- | --- | --- | --- | --- | --- | --- | --- | --- | --- | --- | --- | --- | --- | --- | --- | --- | --- | --- |
| 39.8 (≈ 98.2 µM) | 100.0 | 2.8 | 0.1 | 0.0 | 0.0 | 100.0 | 98.9 | 98.2 | 103.6 | 93.2 | high stability | – | – | CCC(C)C(C(=O)OC)N(C)C(=O)OCOc1ccc([N+](=O)[O-])c2cccnc12 (centres unmarked) [Compound 56, methyl 3-methyl-2-(methyl(((5-nitroquinolin-8-yloxy)methoxy)formyl)amino)pentanoate] | 14.94 | 118.35 | 0.45 | 62.17 | 0.12 | 71.66 | Percentage of the compound remaining in mouse liver microsome ([2]; with coenzyme): 0.44%; Percentage of the compound remaining in mouse liver microsome ([2]; without coenzyme): 103.05% |
| – | 100.0 | 0.0 | 0.0 | 0.0 | 0.0 | 100.0 | 95.2 | 83.6 | 60.9 | 21.6 | high stability | 100.0 | 96.3 | COC(=O)[C@H](Cc1ccccc1)NC(=O)OCOc1ccc([N+](=O)[O-])c2cccnc12 [Compound 58, methyl (S)-2-(((5-nitroquinolin-8-yloxy)methoxy)formamido)-3-phenylpropionate] | – | – | – | – | – | – | Percentage of the compound remaining in plasma (Stability in dog plasma; 37° C., 30 minutes): 90.4%; Percentage of the compound remaining in plasma (Stability in dog plasma; 37° C., 60 minutes): 74.4%; Percentage of the compound remaining in plasma (Stability in dog plasma; 37° C., 120 minutes): 49.8% |
| – | 100.0 | 95.8 | 94.1 | 92.4 | 92.4 | 100.0 | 102.3 | 100.9 | 103.1 | 100.3 | high stability | 100.0 | 96.7 | C[C@@H]1CN(C(=O)OCOc2ccc([N+](=O)[O-])c3cccnc23)C[C@H](C)O1 [Compound 59, (2S,6R)-(5-nitroquinolin-8-yloxy)methyl 2,6-dimethylmorpholine-4-carboxylate] | – | – | – | – | – | – | Percentage of the compound remaining in plasma (Stability in dog plasma; 37° C., 30 minutes): 95.0%; Percentage of the compound remaining in plasma (Stability in dog plasma; 37° C., 60 minutes): 102.8%; Percentage of the compound remaining in plasma (Stability in dog plasma; 37° C., 120 minutes): 99.9% |
| 998 | 100.0 | 93.4 | 80.7 | 84.1 | 72.9 | 100.0 | 85.6 | 89.0 | 75.2 | 74.4 | high stability | – | – | CC(C)(C)OP(=O)(OCOc1ccc([N+](=O)[O-])c2cccnc12)OC(C)(C)C [Compound 70, di-tert-butyl (5-nitroquinolin-8-yloxy)methyl phosphate] | 91.42 | 90.90 | 94.34 | 96.79 | 91.20 | 91.76 | solubility at 24 h ([1]; aqueous buffer, phosphate buffer pH 4.5, room temperature): 843 µg/mL; solubility at 24 h ([1]; aqueous buffer, phosphate buffer pH 6.8, room temperature): 940 µg/mL; water solubility compared with nitroxoline ([1]; conclusion in words): increased by several times; solubility at 24 h ([1]; simulated gastric fluid, phosphate buffer pH 1.2, room temperature): 639 µg/mL |

| Compound | solubility at 24 h [1, 8] [µg/mL] | Percentage of the compound remaining in plasma (Stability in rat plasma; 0 minute) [%] | Percentage of the compound remaining in plasma (Stability in rat plasma; 37° C., 15 minutes) [%] | Percentage of the compound remaining in plasma (Stability in rat plasma; 37° C., 30 minutes) [%] | Percentage of the compound remaining in plasma (Stability in rat plasma; 37° C., 60 minutes) [%] | Percentage of the compound remaining in plasma (Stability in rat plasma; 37° C., 120 minutes) [%] | Percentage of the compound remaining in plasma ([3]; 0 minute) [%] | Percentage of the compound remaining in plasma ([3]; 37° C., 15 minutes) [%] | Percentage of the compound remaining in plasma ([3]; 37° C., 30 minutes) [%] | Percentage of the compound remaining in plasma ([3]; 37° C., 60 minutes) [%] | Percentage of the compound remaining in plasma ([3]; 37° C., 120 minutes) [%] | stability in plasma [7] | Percentage of the compound remaining in plasma (Stability in dog plasma; 0 minute) [%] | Percentage of the compound remaining in plasma (Stability in dog plasma; 37° C., 15 minutes) [%] | Percentage of the compound remaining in dog liver microsome ([4]; with coenzyme) [%] | Percentage of the compound remaining in dog liver microsome ([4]; without coenzyme) [%] | Percentage of the compound remaining in rat liver microsome ([5]; with coenzyme) [%] | Percentage of the compound remaining in rat liver microsome ([5]; without coenzyme) [%] | Percentage of the compound remaining in human liver microsome ([6]; with coenzyme) [%] | Percentage of the compound remaining in human liver microsome ([6]; without coenzyme) [%] | further results |
| --- | --- | --- | --- | --- | --- | --- | --- | --- | --- | --- | --- | --- | --- | --- | --- | --- | --- | --- | --- | --- | --- |
| COC(=O)CN(C)C(=O)Oc1ccc([N+](=O)[O-])c2cccnc12 [Compound 57, methyl 2-(methyl((5-nitroquinolin-8-yloxy)formyl)amino)acetate] | 138 (≈ 432 µM) | 100.0 | 0.1 | 0.0 | 0.0 | 0.0 | 100.0 | 99.8 | 93.0 | 76.2 | 60.2 | high stability | – | – | 0.03 | 75.50 | 23.06 | 44.33 | 0.16 | 0.15 | Percentage of the compound remaining in mouse liver microsome ([2]; with coenzyme): 5.57%; Percentage of the compound remaining in mouse liver microsome ([2]; without coenzyme): 76.69% |
| CC(C)OC(=O)[C@H](C)NP(=O)(OCOc1ccc([N+](=O)[O-])c2cccnc12)Oc1ccccc1 (some centres unmarked) [Compound 75] | – | 100.0 | 0.0 | 0.0 | 0.0 | 0.0 | 100.0 | 98.5 | 94.0 | 87.2 | 65.5 | high stability | 100.0 | 98.3 | 12.95 | 48.90 | 0.00 | 0.02 | 1.64 | 6.45 | Percentage of the compound remaining in plasma (Stability in dog plasma; 37° C., 30 minutes): 95.6%; Percentage of the compound remaining in plasma (Stability in dog plasma; 37° C., 60 minutes): 80.8%; Percentage of the compound remaining in plasma (Stability in dog plasma; 37° C., 120 minutes): 67.8% |
